{"source": "patent US20250388643A1", "about": "“GLUCAGON-LIKE PEPTIDE-2 COMPOSITIONS AND METHODS OF MAKING AND USING SAME” (Amunix Pharmaceuticals, Inc., priority 2011, published 2025)", "key": {"[1]": {"conditions": "cited from earlier work; for terminal half-life: in humans"}, "[2]": {"test_system": "DSS-induced intestinal colitis in C57Bl/6 mice", "experiment": "Murine acute DSS-induced colitis model", "type": "in vivo, mouse", "conditions": "DSS-treated mice", "procedure": "To determine the efficacy of GLP2-XTEN, the GLP2-2G-XTEN-AE864 fusion protein was evaluated in a mouse model of intestinal inflammatory colitis. […] A naïve, non-treated control group (group 1) was given normal drinking water for the duration of the experiment. […] Tissues were fixed in formalin and then transferred to ethanol for staining and histopathology. The anatomical data was analyzed with an ANOVA model with a Tukey/Kramer post-hoc test for pairwise comparisons, with significance at p=0.05."}, "[3]": {"test_system": "small intestine growth in rats", "experiment": "Intestinotrophic growth in normal rats (small intestine weight and length)", "type": "in vivo, rat", "conditions": "normal Sprague-Dawley rats, SC 12 days; peptide 12.5 nmol/kg twice daily, fusion protein 25 nmol/kg once daily", "procedure": "To determine the intestinotrophic properties of GLP2-XTEN, small intestine growth in rats was measured as a primary pharmacodynamic endpoint. […] GLP2-2G-XTEN was dosed at 25 nmol/kg once daily for 12 days. After sacrifice, a midline incision was made, the small intestines were removed, stretched to their maximum length and the length recorded. The fecal material was flushed from the lumen and the small intestinal wet weight recorded. The small intestine length and weight data were analyzed with an ANOVA model with a Tukey/Kramer post-hoc test for pairwise comparisons, with significance at p=0.05."}, "[4]": {"test_system": "indomethacin-induced intestinal inflammation in Wistar rats", "experiment": "Rat Crohn's Disease indomethacin-induced intestinal inflammation model, Study 3", "type": "in vivo", "procedure": "Study 3: A third indomethacin-induced inflammation study was performed to verify previous results and test additional dose regimens. Intestinal inflammation was induced in male Wistar rats (Harlan Sprague Dawley) using indomethacin administered on Days 0 and 1 of the experiment according to Table 21.\nAll treatments were administered per the schedule starting on Day-3 of the experiment. Body weights were determined daily. On Day 2 (24 hours post-2nd indomethacin dose), the animals were prepped for sacrifice and analysis. The small intestines were removed and the length of each was recorded. Quantitative histopathology was performed on a subset of samples. Rat small intestine samples consisted of a 3 cm section of proximal jejunum and a 3 cm section of mid-jejunum collected 15 cm and 30 cm from the pylorus, respectively. Samples were fixed in 10% neutral buffered formalin. Samples were trimmed into multiple sections without bias toward lesion presence or absence. These sections were placed in cassettes, embedded in paraffin, microtomed at approximately 4 microns thickness, and stained with hematoxylin and eosin (H&E). The slides were evaluated microscopically by a board certified veterinary pathologist and scored for villous height as well as infiltration/inflammation, mucosal atrophy, villi/crypt appearance, abscesses/ulceration. A 1 to 4 severity grading scale was used, where 1=minimal, 2=mild, 3=moderate, 4=marked/severe, reflecting the combination of the cellular reactions seen histopathologically. Small intestine length was analyzed with an ANOVA model with a Tukey/Kramer post-hoc test for pairwise comparisons, with significance at p=0.05. Non-parametric histology score variables were compared with the vehicle control using a Mann Whitney U test with a Bonferroni correction for the p-value to create an overall alpha of 0.05."}, "[5]": {"test_system": "indomethacin-induced intestinal inflammation in Wistar rats", "type": "in vivo, rat", "procedure": "Study 2: Intestinal inflammation was induced in eighty male Wistar rats (Harlan Sprague Dawley) using indomethacin administered on Days 0 and 1 of the experiment. The rats were divided into eight treatment groups for treatment according to Table 20. All treatments were administered per the schedule starting on Day-3 of the experiment. Body weights were determined daily. On Day 2 (24 hours post-2nd indomethacin dose), the animals were prepped for sacrifice and analysis. Thirty minutes prior to sacrifice, the rats were injected intravenously with 1 ml 1% Evans Blue dye, in order to visualize ulcers and extent of inflammation by histopathology analysis. The rats were anesthetized and blood samples were removed to determine the concentration of GLP-2-2G-XTEN using the anti-XTEN/anti-GLP2 ELISA method. The rats were euthanized then necropsied and scored by gross examination of the intestines for the presence of adhesions; i.e., none=0, mild=1, moderate=2, or severe=3. The small intestines were removed and the length of each was recorded. In each small intestine, a longitudinal incision was made and the interior was examined. The degree and length of the ulcerated area was recorded as a score; i.e., none=0, few=1, multiple=2, or continuous=3. The fecal material was washed away with saline and blotted to remove excess fluid and each small intestine was weighed then processed for histopathology examination to quantitate the degree of inflammation; i.e., 0.0%=0, 1-33%=1, 34-66%=2, 67-100%=3."}, "[6]": {"test_system": "indomethacin-induced intestinal inflammation in Wistar rats", "experiment": "Rat Crohn's Disease indomethacin-induced intestinal inflammation model, Study 1", "type": "in vivo", "procedure": "To determine the efficacy of GLP2-XTEN using single dose or qd dosing, the GLP2-2G-XTEN-AE864 fusion protein was evaluated in a rat model of Crohn's Disease of indomethacin-induced intestinal inflammation in three separate studies.\nStudy 1: Intestinal inflammation was induced in eighty male Wistar rats (Harlan Sprague Dawley) using indomethacin administered on Days 0 and 1 of the experiment. The rats were divided into seven treatment groups for treatment according to Table 19.\nAll treatments were administered per the schedule starting on Day −3 of the experiment. Body weights were determined daily. Groups 3 and 5 were dosed equimolar/day. On Day 2 (24 hours post-2nd indomethacin dose), the animals were prepped for sacrifice and analysis. Thirty minutes prior to sacrifice, the rats were injected intravenously with 1 ml 1% Evans Blue dye, in order to visualize ulcers and extent of inflammation by histopathology analysis. The rats were anesthetized (SOP 1810), blood samples were removed to determine the concentration of GLP-2-2G-XTEN using the anti-XTEN/anti-GLP2 ELISA method. The rats were euthanized then necropsied and scored by gross examination of the intestines for the presence of adhesions; i.e., none=0, mild=1, moderate=2, or severe=3. The small intestines were removed and the length of each was recorded. In each small intestine, a longitudinal incision was made and the interior was examined. The degree and length of the ulcerated area was recorded as a score; i.e., none=0, few=1, multiple=2, or continuous=3. For TNFα determination, intestinal samples were thawed and homogenized in a total of 20 ml with DPBS. The supernatants were equilibrated to room temperature and assayed for TNFα by ELISA (R&D Systems, Cat. RTA00, lot 281687, exp. 7 Sep. 2011). The samples for Group 1 were assayed undiluted. The samples for Groups 2-7 were diluted 1:4. For histopathology, the small intestines were gently washed with saline to remove the fecal material and were blotted to remove excess fluid. Each small intestine was weighed then processed for histopathology examination to quantitate the degree of inflammation; i.e., 0.0%=0, 1-33%=1, 34-66%=2, 67-100%=3."}}, "note": "Like-named read-outs stand apart in the source and are kept apart here."}
{"compound": "CC[C@H](C)[C@H](NC(=O)[C@H](Cc1ccccc1)NC(=O)[C@H](CC(=O)O)NC(=O)[C@H](CCCNC(=N)N)NC(=O)[C@H](C)NC(=O)[C@H](C)NC(=O)[C@H](CC(C)C)NC(=O)[C@H](CC(N)=O)NC(=O)[C@H](CC(=O)O)NC(=O)[C@H](CC(C)C)NC(=O)[C@@H](NC(=O)[C@@H](NC(=O)[C@H](CC(N)=O)NC(=O)[C@H](CCSC)NC(=O)[C@H](CCC(=O)O)NC(=O)[C@H](CC(=O)O)NC(=O)[C@H](CO)NC(=O)[C@H](Cc1ccccc1)NC(=O)[C@H](CO)NC(=O)CNC(=O)[C@H](CC(=O)O)NC(=O)CNC(=O)[C@@H](N)Cc1c[nH]cn1)[C@@H](C)O)[C@@H](C)CC)C(=O)N[C@@H](CC(N)=O)C(=O)N[C@@H](Cc1c[nH]c2ccccc12)C(=O)N[C@@H](CC(C)C)C(=O)N[C@H](C(=O)N[C@@H](CCC(N)=O)C(=O)N[C@H](C(=O)N[C@@H](CCCCN)C(=O)N[C@H](C(=O)N[C@H](C(=O)N[C@@H](CC(=O)O)C(=O)O)[C@@H](C)O)[C@@H](C)CC)[C@@H](C)O)[C@@H](C)CC", "note": "[teduglutide]", "values": [{"measurement": "terminal half-life", "setting": "[1]; reported (Marier 2008)", "value": 192, "unit": "min"}, {"measurement": "terminal half-life", "setting": "[1]; reported (Marier 2010)", "value": "54 to 138", "unit": "min"}, {"measurement": "half life", "setting": "[1]; reported (Marier 2010)", "value": "54 to 138", "unit": "min"}]}
{"compound": "native GLP-2: human glucagon-like peptide-2, 33 amino acids, HADGSFSDEMNTILDNLAARDFINWLIQTKITD (SEQ ID NO: 2)", "values": [{"measurement": "half-life (terminal half-life in humans)", "setting": "[1]; human, in vivo", "value": "approximately seven minutes"}]}
{"compound": "CC[C@H](C)[C@H](NC(=O)[C@H](Cc1ccccc1)NC(=O)[C@H](CC(=O)O)NC(=O)[C@H](CCCNC(=N)N)NC(=O)[C@H](C)NC(=O)[C@H](C)NC(=O)[C@H](CC(C)C)NC(=O)[C@H](CC(N)=O)NC(=O)[C@H](CC(=O)O)NC(=O)[C@H](CC(C)C)NC(=O)[C@@H](NC(=O)[C@@H](NC(=O)[C@H](CC(N)=O)NC(=O)[C@H](CCSC)NC(=O)[C@H](CCC(=O)O)NC(=O)[C@H](CC(=O)O)NC(=O)[C@H](CO)NC(=O)[C@H](Cc1ccccc1)NC(=O)[C@H](CO)NC(=O)CNC(=O)[C@H](CC(=O)O)NC(=O)CNC(=O)[C@@H](N)Cc1c[nH]cn1)[C@@H](C)O)[C@@H](C)CC)C(=O)N[C@@H](CC(N)=O)C(=O)N[C@@H](Cc1c[nH]c2ccccc12)C(=O)N[C@@H](CC(C)C)C(=O)N[C@H](C(=O)N[C@@H](CCC(N)=O)C(=O)N[C@H](C(=O)N[C@@H](CCCCN)C(=O)N[C@H](C(=O)N[C@H](C(=O)N[C@@H](CC(=O)O)C(=O)O)[C@@H](C)O)[C@@H](C)CC)[C@@H](C)O)[C@@H](C)CC", "note": "[GLP2-2G peptide, reference compound]", "values": [{"measurement": "growth in the assayed tissues (colon, small intestine, stomach)", "setting": "[2]; BID days 1-10", "value": "did not induce significant growth"}, {"measurement": "loss of body weight", "setting": "[2]; SC days 1-10, peptide BID, fusion protein QD, any dose", "value": "neither the mice treated with GLP2-2G peptide nor any of the groups of mice treated with any dose of GLP2-2G-XTEN mice showed a reduced loss of body weight"}, {"measurement": "increase in small intestine length", "setting": "[3]", "value": "no significant effects"}, {"measurement": "increase in small intestine weight", "setting": "[3]", "value": 24, "unit": "%"}, {"measurement": "villi height", "setting": "[4]; fusion protein high (total dose 125 nmol/kg) and low (total dose 75 nmol/kg), FIG. 24B", "value": "not significant"}, {"measurement": "mucosal ulceration and mixed cell infiltrate", "setting": "[4]; three treatment groups", "value": "not significant"}, {"measurement": "histopathology: protective effects", "setting": "[5]; daily bid peptide, once-daily fusion protein", "value": "most pronounced in the ileum, but were also seen in the jejunum"}, {"measurement": "adhesions score", "setting": "[5]; once-daily fusion protein, daily bid peptide, FIG. 22B", "value": "reached statistically significant difference"}, {"measurement": "small intestine length", "setting": "[5]; once-daily fusion protein, daily bid peptide, vs indomethacin-treated vehicle control", "value": "reached statistically significant difference"}, {"measurement": "total disease score", "setting": "[5]; peptide delivered bid, fusion protein delivered qd, vs indomethacin-treated vehicle control", "value": "significantly improved scores"}, {"measurement": "small intestine weight", "setting": "[6]; 0.5 mg/kg peptide, both fusion protein groups, compared to diseased control Group 2, FIG. 21C", "value": "significant increase"}, {"measurement": "small intestine length", "setting": "[6]; FIG. 21B", "value": "significant increase"}, {"measurement": "ulceration (gross pathology scoring of small intestine)", "setting": "[6]; FIG. 21D", "value": "significant decreases in ulceration"}, {"measurement": "small intestine inflammation score", "setting": "[6]; FIG. 21F", "value": "neither the GLP-2-2G peptide nor the GLP-2-2G-XTEN fusion protein treatments showed a significant effect on inflammation"}, {"measurement": "body weight at termination", "setting": "[6]; compared to disease control (Group 2), FIG. 21A", "value": "did not have a significant increase in body weight"}, {"measurement": "scores of adhesions and transulceration", "setting": "[6]; compared to diseased control (Group 2), FIG. 21E", "value": "significant decreases"}, {"measurement": "TNFα in small intestine (ELISA)", "setting": "[6]; compared to diseased control Group 2, FIG. 21G", "value": "significantly decreased cytokine levels"}]}
